Data on 8 molecules can be found in US20110124634A1, “BIOACTIVE COMPOUNDS FOR TREATMENT OF CANCER AND NEURODEGENERATIVE DISEASES” (PONIARD PHARMACEUTICALS, INC., priority 2008, published 2011).

The term pIC50 denotes the negative decadic logarithm of the IC50, by convention in mol/L.

For one assay, the system named is HSP90. Kind of assay: Fluorescence polarization (FP) assay for affinity to HSP90. Format: binding. Conditions: means of three independent experiments. Here is the method:
Most of the compounds synthesized were evaluated for their ability to induce degradation of the HSP90 client protein Her2 in SKBR-3 cells. Selected compounds were evaluated in a fluorescence polarization (FP) assay for their affinity to HSP90.
Background: In fluorescence polarisation assays a small probe gives low polarisation when free and higher when bound to something large.

In assay [1] the test system is HSP90 client protein Her2 in SKBR-3 cells. Put plainly: Her-2 degradation assay (Her-2 ELISA) in SKBr-3 cells. The format is cell-based. The following applies: Homo sapiens, means of three independent experiments. The gist of the method: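 SKBr-3 cells in McCoy's 5a/10% FBS treated with increasing inhibitor concentrations for 18 h; lysates (2 ug protein, BCA-normalised) assayed by Her-2 ELISA at 450 nm with no-lysate background subtracted. IC50 from nonlinear fit of A450 versus log inhibitor concentration.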

A further assay concerns MCF-7. Put plainly: MTS assay (cytotoxicity), growth inhibition of MCF-7. Conditions: Homo sapiens, MCF7, 120 h, Table 4, 5 days, means of three independent experiments, read-out: MCF-7 IC50 (growth inhibition). Format: cell-based. A digest of the protocol: (§1)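 Cells seeded at 2000/well for 24 h, then exposed to increasing inhibitor concentrations for 5 days. Viable cells measured by MTS, absorbance 490 nm after 2-4 h, cell-free background subtracted. IC50 from nonlinear least-squares fit of absorbance vs log concentration.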
A general note: Tetrazolium assays rely on reduction of a dye to a coloured formazan, in cell work by metabolically active cells.

For the next assay, the system named is HT29. Kind of assay: MTS assay (cytotoxicity), growth inhibition of HT29. The format is cell-based. Conditions: Homo sapiens, HT-29, 120 h, Table 4, 5 days, means of three independent experiments, read-out: HT29 IC50 (growth inhibition). A digest of the protocol:
as §1

A further assay deals with SKBR-3. Kind of assay: MTS assay (cytotoxicity), growth inhibition of SKBR-3. Format: cell-based. The following applies: Homo sapiens, SK-BR-3, 120 h, Table 4, 5 days, means of three independent experiments, read-out: SKBR-3 IC50 (growth inhibition). The gist of the method:
as §1

The next assay has as its system BT474. Put plainly: MTS assay (cytotoxicity), growth inhibition of BT474. Conditions: Homo sapiens, BT-474, 120 h, Table 4, 5 days, means of three independent experiments, read-out: BT474 IC50 (growth inhibition). Format: cell-based. A digest of the protocol:
as §1

Another assay concerns hMEpiC. Kind of assay: MTS assay (cytotoxicity), growth inhibition of human mammary epithelial cell. Conditions: Table 4, means of three independent experiments. The format is cell-based. Here is the method: Cells were seeded in 96-well plates at 2000 cells/well in a final culture volume of 100 ul for 24 hours before the addition of 25 ul of increasing concentrations of inhibitors that was incubated for 5 days. Viable cell number was determined using the CellTiter 96 AQueous One Solution Cell Proliferation Assay (Promega). Plates were read at 490 nm absorbance 2-4 hours after addition of the MTS reagent using a multiwell plate spectrophotometer. Background was determined by measuring the Abs 490 nm of cell culture medium and MTS in the absence of cells. The background value was subtracted from all values. Absorbance 490 nm values for each inhibitor were plotted against the log 10 inhibitor concentration, and IC50 values were calculated using a nonlinear least-square curve fitting program in Prism 5.

Where [2] appears, read: SK-BR-3, Table 1, series I, 18 hours.

SMILES strings stand for the structures. pIC50: −log10 of the molar value.

On to `COc1c(C)cnc(CN2CC(=O)Nc3c(Cl)nc(N)nc32)c1C` [Example I-2], for which the pIC50 in the assay on HSP90 (Table 1, series I) is 6.06; in assay [1] (setting [2]), 6.24; in the assay with MCF-7, 5.83; in the assay on HT29, 5.93; in the assay on SKBR-3, 6.41; in the assay with BT474 it was 6.19.
Turning to `COc1c(C)cnc(CN2CC(=O)N(CCCC(C)C)c3c(Cl)nc(N)nc32)c1C` [Example I-3], the pIC50 with HSP90 (Table 1, series I) was 6.05; in assay [1] (setting [2]), 5.72; in the assay with MCF-7, 5.51; with HT29, 5.65; with SKBR-3, 6.01; in the assay with BT474 it was 5.78.
In the case of `COc1c(C)cnc(CN2CC(=O)N(C(C)C)c3c(Cl)nc(N)nc32)c1C` [Example I-4], the pIC50 in the assay with HSP90 (Table 1, series I) is 7.15; in assay [1] (setting [2]), 7.30; with MCF-7, 7.30; with HT29, 7.22; with SKBR-3, 7.70; in the assay with BT474 it was 7.52. This molecule showed a pIC50 with hMEpiC of 6.49.
As for `COc1c(C)cnc(CN2CC(=O)N(C)c3c(Cl)nc(N)nc32)c1C` [Example I-5], the pIC50 was 6.02 with HSP90 (Table 1, series I); 6.03 in assay [1] (setting [2]); 5.66 in the assay on MCF-7; 5.83 with HT29; 6.34 in the assay on SKBR-3; 6.02 with BT474.
Consider `COc1c(C)cnc(CN2CC(=O)N(CC(C)C)c3c(Cl)nc(N)nc32)c1C` [Example I-6], for which the pIC50 in the assay on HSP90 (Table 1, series I) is 7.30; with HSP90 (Table 2), 7.30; in assay [1] (setting [2]) it was 7.40; in the assay on MCF-7, 7.15; in the assay on HT29, 7.40; in the assay with SKBR-3 it was 8.00. Moreover, the negative-log IC50 (pIC50) is 7.70 with BT474 and 6.89 in the assay on hMEpiC.
For the molecule `COc1c(C)cnc(CN2c3nc(N)nc(Cl)c3NC(=O)[C@H]2C)c1C` [Example I-26], the pIC50 in the assay on HSP90 (Table 2) is 6.40; in assay [1] (SK-BR-3, Table 2, 18 hours), 6.46; in the assay with MCF-7 it was 6.10; in the assay on HT29 it was 6.33; with SKBR-3, 6.66; with BT474, 6.39.
Regarding `COc1c(C)cnc(CN2c3nc(N)nc(Cl)c3NC(=O)[C@@H]2C(C)C)c1C` [Example I-28], the pIC50 in the assay with HSP90 (Table 2) was 5.67; in assay [1] (SK-BR-3, Table 2, 18 hours), 6.19; with MCF-7, 5.80; in the assay with HT29 it was 5.97; with SKBR-3, 6.37; in the assay on BT474 it was 6.12.
Take `Cc1cnc(CN2CC(=O)N(CC(C)C)c3c(Cl)nc(N)nc32)c(C)c1Br` [Example I-34]: the pIC50 in the assay on HSP90 (Table 3) was 7.22; in assay [1] (SK-BR-3, Table 3, 18 hours), 7.00; with MCF-7 it was 6.55; in the assay on HT29 it was 6.85; with SKBR-3, 7.22; with BT474 it was 6.89. This molecule gave a pIC50 in the assay on hMEpiC of 6.74.
